# Data reported in patent US20190022152A1, “MICROBIOME RESPONSE TO AGENTS” (Yeda Research and Development Co., Ltd., priority 2014, published 2019).
# Peptide text beside a SMILES is read from it.
# Tests used:
# [1] = test system: fecal matter from naïve mice; experiment: In vitro anaerobic culturing of fecal matter with saccharin; format: cell-based; details: In vitro, PBS vs. SAC
# Method: pooled fecal matter from naïve adult WT C57Bl/6 male mice was resuspended in 5 ml PBS in an anaerobic chamber (Coy Laboratory Products, 75% N2, 20% CO2, 5% H2), vortexed for 3 minutes and allowed to settle by gravity for 2 minutes. […] were added to a tube containing Chopped Meat Carbohydrate Broth, PR II (BD) and […] of a 5 mgml-1 saccharin solution or an equal volume of PBS. Every 3 days, 500 ml of culture were diluted to fresh medium containing saccharin or PBS. After 9 days, cultures were used for inoculation of germ-free mice.
# Frozen fecal samples were processed for DNA isolation using the MoBio PowerSoil kit according to the manufacturer's instructions. […] the variable region 2 (V2) of the 16S rRNA gene were generated by using the following barcoded primers: Fwd 5′-[…]-3′ (SEQ ID NO: 3), Rev 5′-[…]-3′ (SEQ ID NO: 4). […] Reads were then processed using the QIIME (Quantitative Insights Into Microbial Ecology) analysis pipeline as described, version 1.8. Paired-end joined sequences were grouped into operational taxonomic units (OTUs) using the UCLUST algorithm and the greengenes database. Sequences with distance-based similarity of 97% or greater over median sequence length of 353 bp were assigned to the same OTU. Samples were grouped according to the treatment. […] P-values were FDR corrected for multiple hypothesis testing.
# [2] = test system: mice; experiment: Oral glucose tolerance test in mice drinking non-caloric artificial sweeteners (NAS); format: in vivo; details: lean C57Bl/6 mice, normal chow, commercial NAS formulations in drinking water, week 11; p<0.001 vs water, glucose, sucrose
# Text: C57Bl/6 WT adult male mice were randomly assigned (without blinding) to treatment groups and were given commercial artificial sweeteners (saccharin-, sucralose- or aspartame-based) or pure saccharin (Sigma Aldrich) in drinking water and fed a high-fat (HFD D12492, 60% Kcal from fat, Research Diets) or standard polysaccharide normal chow (NC) diet (Harlan-Teklad). Compared groups were always fed from the same batch of diet. For antibiotic treatment, mice were given a combination of ciprofloxacin (0.2 gl^−1) and metronidazole ([…]) or vancomycin (0.5 gl^−1) in their drinking water. All antibiotics were obtained from Sigma Aldrich. Adult male outbred Swiss-Webster mice (a widely used mouse strain in germ-free experiments) served as recipients for fecal transplants and were housed in sterile isolators (Park Biosciences). For fecal transplantation experiments, 200 mg of stool (from mouse pellets or human swabs) was resuspended in 5 ml of PBS under anaerobic conditions, vortexed for 3 minutes and allowed to settle by gravity for 2 minutes. Recipient mice were gavaged with 200 μl of the supernatant and maintained on standard NC diet and water throughout the experiment.
# The following commercially available NAS were dissolved in mice drinking water to obtain a 10% solution: Sucrazit (5% saccharin, 95% glucose), Sucralite (5% Sucralose), Sweet'n Low Gold (4% Aspartame). 10% glucose (J.T. Baker) and 10% sucrose (Sigma Aldrich) solutions were used for controls. […] For experiments conducted with pure saccharin (Sigma Aldrich) a 0.1 mgml^−1 solution was used in order to meet with FDA defined ADI for saccharin in humans (5 mgkg^−1), according to the following calculation:
# Mice were fasted for 6 hours during the light phase, with free access to water. In all groups of mice where the drinking regime was other than water, it was substituted for water for the period of the fasting and glucose or insulin tolerance test. Blood from the tail vein was used to measure glucose levels using a glucometer (Bayer) immediately before and 15, 30, 60, 90 and 120 minutes after oral feeding with 40 mg glucose (J.T. Baker) or intra-peritoneal injection with 0.1 Ukg^−1 Insulin (Biological Industries). Plasma fasting insulin levels were measured in sera collected immediately before the start of GTT using ELISA (Ultra Sensitive Mouse Insulin ELISA Kit, Crystal Chem).
# [3] = literature values; cited from earlier work
smiles,measurement,setting,value
O=C1NS(=O)(=O)c2ccccc21 [SAC],Log_fold change: 2-Oxocarboxylic acid metabolism,[1],0.01
same,Log_fold change: ABC transporters,[1],−0.03
same,"Log_fold change: Alanine, aspartate and glutamate metabolism",[1],−0.01
same,Log_fold change: Amino sugar and nucleotide sugar metabolism,[1],0.01
same,Log_fold change: Aminoacyl-tRNA biosynthesis,[1],−0.02
same,Log_fold change: Aminobenzoate degradation,[1],−0.01
same,Log_fold change: Arginine and proline metabolism,[1],−0.01
same,Log_fold change: Ascorbate and aldarate metabolism,[1],0.03
same,Log_fold change: Atrazine degradation,[1],−0.05
same,Log_fold change: Bacterial chemotaxis,[1],0.03
same,Log_fold change: Bacterial secretion system,[1],0.01
same,Log_fold change: Base excision repair,[1],0.00
same,Log_fold change: Benzoate degradation,[1],−0.01
same,Log_fold change: Biosynthesis of amino acids,[1],0.00
same,Log_fold change: Biosynthesis of siderophore group nonribosomal peptides,[1],−0.02
same,Log_fold change: Biosynthesis of unsaturated fatty acids,[1],−0.03
same,Log_fold change: Biotin metabolism,[1],−0.01
same,Log_fold change: Bisphenol degradation,[1],0.00
same,Log_fold change: Butanoate metabolism,[1],−0.01
same,Log_fold change: CS-Branched dibasic acid metabolism,[1],0.01
same,Log_fold change: Caprolactam degradation,[1],−0.02
same,Log_fold change: Carbon fixation in photosynthetic organisms,[1],0.00
same,Log_fold change: Carbon fixation pathways in prokaryotes,[1],0.00
same,Log_fold change: Carbon metabolism,[1],−0.01
same,Log_fold change: Cell cycle-Caulobacter,[1],0.00
same,Log_fold change: Chloroalkane and chloroalkene degradation,[1],−0.03
same,Log_fold change: Citrate cycle (TCA cycle),[1],0.00
same,Log_fold change: Cyanoamino acid metabolism,[1],0.02
same,Log_fold change: Cysteine and methionine metabolism,[1],0.01
same,Log_fold change: D-Alanine metabolism,[1],−0.04
same,Log_fold change: D-Arginine and D-ornithine metabolism,[1],0.24
same,Log_fold change: D-Glutamine and D-glutamate metabolism,[1],−0.03
same,Log_fold change: DDT degradation,[1],−0.35
same,Log_fold change: DNA replication,[1],0.00
same,Log_fold change: Dioxin degradation,[1],−0.12
same,Log_fold change: Drug metabolism-other enzymes,[1],0.00
same,Log_fold change: Ether lipid metabolism,[1],−0.02
same,Log_fold change: Fatty acid biosynthesis,[1],−0.01
same,Log_fold change: Fatty acid degradation,[1],−0.01
same,Log_fold change: Fatty acid metabolism,[1],0.00
same,Log_fold change: Flagellar assembly,[1],0.07
same,Log_fold change: Folate biosynthesis,[1],0.00
same,Log_fold change: Fructose and mannose metabolism,[1],0.00
same,Log_fold change: Galactose metabolism,[1],0.02
same,Log_fold change: Geraniol degradation,[1],0.00
same,Log_fold change: Glutathione metabolism,[1],−0.03
same,Log_fold change: Glycerolipid metabolism,[1],0.00
same,Log_fold change: Glycerophospholipid metabolism,[1],−0.02
same,"Log_fold change: Glycine, serine and threonine metabolism",[1],0.00
same,Log_fold change: Glycolysis/Gluconeogenesis,[1],−0.02
same,Log_fold change: Glycosaminoglycan degradation,[1],0.03
same,Log_fold change: Glycosphingolipid biosynthesis-globoseries,[1],0.05
same,Log_fold change: Glyoxylate and dicarboxylate metabolism,[1],0.01
same,Log_fold change: Histidine metabolism,[1],0.01
same,Log_fold change: Homologous recombination,[1],−0.01
same,Log_fold change: Inositol phosphate metabolism,[1],0.02
same,Log_fold change: Limonene and pinene degradation,[1],−0.01
same,Log_fold change: Lipoicacid metabolism,[1],−0.01
same,Log_fold change: Lipopolysaccharide biosynthesis,[1],0.01
same,Log_fold change: Lysine biosynthesis,[1],0.00
same,Log_fold change: Lysine degradation,[1],−0.03
same,Log_fold change: Methane metabolism,[1],−0.01
same,Log_fold change: Mismatch repair,[1],−0.01
same,Log_fold change: Naphthalene degradation,[1],−0.02
same,Log_fold change: Nicotinate and nicotinamide metabolism,[1],−0.02
same,Log_fold change: Nitrogen metabolism,[1],0.00
same,Log_fold change: Nitrotoluene degradation,[1],−0.05
same,Log_fold change: Novobiocin biosynthesis,[1],0.02
same,Log_fold change: Nucleotide excision repair,[1],0.00
same,Log_fold change: One carbon pool by folate,[1],0.01
same,Log_fold change: Other glycan degradation,[1],0.03
same,Log_fold change: Oxidative phosphorylation,[1],−0.02
same,Log_fold change: Pantothenate and CoA biosynthesis,[1],0.00
same,Log_fold change: Penicillin and cephalosporin biosynthesis,[1],−0.02
same,Log_fold change: Pentose and glucuronate interconversions,[1],0.02
same,Log_fold change: Pentose phosphate pathway,[1],0.00
same,Log_fold change: Peptidoglycan biosynthesis,[1],−0.02
same,Log_fold change: Phenylalanine metabolism,[1],0.01
same,"Log_fold change: Phenylalanine, tyrosine and tryptophan biosynthesis",[1],0.01
same,Log_fold change: Phosphonate and phosphinate metabolism,[1],−0.01
same,Log_fold change: Phosphotransferase system (PTS),[1],−0.17
same,Log_fold change: Porphyrin and chlorophyll metabolism,[1],0.01
same,Log_fold change: Propanoate metabolism,[1],−0.01
same,Log_fold change: Protein export,[1],−0.01
same,Log_fold change: Proximal tubule bicarbonate reclamation,[1],−0.02
same,Log_fold change: Purine metabolism,[1],−0.01
same,Log_fold change: Pyrimidine metabolism,[1],−0.01
same,Log_fold change: Pyruvate metabolism,[1],0.00
same,Log_fold change: RNA degradation,[1],−0.01
same,Log_fold change: Riboflavin metabolism,[1],0.01
same,Log_fold change: Ribosome,[1],−0.01
same,Log_fold change: Selenocompound metabolism,[1],−0.01
same,Log_fold change: Sphingolipid metabolism,[1],0.04
same,Log_fold change: Starch and sucrose metabolism,[1],0.01
same,Log_fold change: Streptomycin biosynthesis,[1],0.00
same,Log_fold change: Styrene degradation,[1],0.06
same,Log_fold change: Sulfur metabolism,[1],−0.01
same,Log_fold change: Sulfur relay system,[1],−0.03
same,Log_fold change: Synthesis and degradation of ketone bodies,[1],−0.09
same,Log_fold change: Taurine and hypotaurine metabolism,[1],0.00
same,Log_fold change: Terpenoid backbone biosynthesis,[1],−0.01
same,Log_fold change: Tetracycline biosynthesis,[1],−0.15
same,Log_fold change: Thiamine metabolism,[1],−0.02
same,"Log_fold change: Tropane, piperidine and pyridine alkaloid biosynthesis",[1],0.02
same,Log_fold change: Tryptophan metabolism,[1],−0.04
same,Log_fold change: Two−component system,[1],0.01
same,Log_fold change: Tyrosine metabolism,[1],−0.01
same,Log_fold change: Ubiquinone and other terpenoid-quinone biosynthesis,[1],−0.03
same,"Log_fold change: Valine, leucine and isoleucine biosynthesis",[1],0.01
same,"Log_fold change: Valine, leucine and isoleucine degradation",[1],0.00
same,Log_fold change: Vibriocholerae pathogenic cycle,[1],0.00
same,Log_fold change: Vitamin B6 metabolism,[1],0.00
same,Log_fold change: Xylene degradation,[1],−0.12
same,Log_fold change: beta-Alanine metabolism,[1],−0.01
same,Log_fold change: beta-Lactam resistance,[1],0.01
COC(=O)[C@H](Cc1ccccc1)NC(=O)[C@@H](N)CC(=O)O [aspartame] (H-Asp-Phe-OMe),glucose tolerance (OGTT),[2],marked glucose intolerance
same,reported toxic dose,[3],4 gkg^−1
OC[C@H]1O[C@H](O[C@]2(CCl)O[C@H](CCl)[C@@H](O)[C@@H]2O)[C@H](O)[C@@H](O)[C@H]1Cl [sucralose],glucose tolerance (OGTT),[2],marked glucose intolerance
same,reported toxic dose,[3],16 gkg^−1
